Reference: paper PMC9960827, “Cloning and Characterization of Trypanosoma congolense and T. vivax Nucleoside Transporters Reveal the Potential of P1-Type Carriers for the Discovery of Broad-Spectrum Nucleoside-Based Therapeutics against Animal African Trypanosomiasis” (International Journal of Molecular Sciences, 2023)
Several values for one entry are separate records, joined by “and”; a condition that tells them apart may be missing. Equal values may be shown once. Read-outs that look alike come from different tables or passages of the source.

Assays:
TcoAT1 = type: cell-based, Trypanosoma congolense; conditions: for Ki: 0.05 µM [3H]-adenosine, 10 s, IC50 converted to Ki, read-out: Ki on the transport of [3H]-adenosine; for ΔG0: Gibbs free energy of binding, from Km or Ki; for δ(ΔG0): loss of Gibbs free energy of binding relative to the parent nucleoside
Description: (§1) The information for the T. congolense adenosine transporter (TcoAT1) and four putative T. vivax nucleoside transporters was obtained in the TritrypDB (tritrypdb.org/tritrypdb) genome database. Primers were designed to flank each gene upstream of the 5′ end (forward) and downstream of the 3′ end (reverse) as described (primer sequences in Supplementary Table S2). Following amplification from the genomic DNA of T. congolense or T. vivax, DNA for each extracted gene was ligated into the pNUS-HcN expression vector doubly digested with NdeI using the NEBuilder kit according to the manufacturer’s instructions (New England Biolabs). Construct was transformed into competent E. coli cells, and ligation was confirmed by restriction enzyme digestion of isolated plasmid DNA followed by Sanger sequencing (Source BioScience, Nottingham, UK). Confirmed plasmids were then transfected into L. mexicana cell line in which both NT1 and NT2 were doubly knocked out (SUPKO) and derived from L. mexicana Cas9 [64] as described. Clones grown in medium containing 50 μg/mL neomycin (G418) were collected for further confirmation by PCR with genomic DNA using a forward primer of the transporter gene and a reverse primer of the plasmid.
(§2) Uptake assays using radiolabeled trypanocides and/or nucleosides were carried out as described previously. Briefly, parasite cultures were harvested, washed twice in assay buffer (33 mM HEPES, 98 mM NaCl, 4.6 mM KCl, 0.5 mM CaCl2, 0.07 mM MgSO4, 5.8 mM NaH3PO4, 0.03 mM MgCl2, 23 mM NaHCO3, 14 mM D-glucose, pH 7.3), then resuspended and adjusted to a density of 1 × 10^8 cells/mL in assay buffer. The radiolabeled permeant in the presence or absence of different concentrations of potential inhibitors reconstituted in 100 μL assay buffer was deposited on top of 250 μL oil mix in microcentrifuge tubes; 1 × 10^7 parasites in 100 μL assay buffer were added to the tube and incubated for a pre-determined interval. The reaction was stopped by the addition of 1 mL of a high concentration of ice-cold unlabeled substrate in assay buffer (‘stop solution’) and centrifugation, or by immediate centrifugation at […] as appropriate. The microcentrifuge tubes were flash-frozen, and the bottom of each tube containing the cell pellet was cut off and transferred to a scintillation vial. Cell pellets were lysed in 2% SDS, after which scintillation fluid (Scintlogic U, Lablogic) was added, followed by overnight incubation in the dark. Scintillation was measured in a 300SL (Hidex) scintillation counter (Hidex). All the assays were conducted in triplicate and analysis was carried out using Microsoft Excel and GraphPad Prism. All kinetic parameters were obtained on at least 3 separate occasions.
(§3) The dose-dependent uptake assay allowed for the affinity of nucleoside analogs to different nucleoside transporters to be determined by measuring the extent to which the analogs compete with and inhibit the uptake of radiolabel adenosine. This allowed for the determination of biochemical parameters such as Km and Vmax through the application of the Michaelis–Menten equation V0 = Vmax([substrate]/([substrate] + Km)). The 50% Inhibitory Concentration (IC50) of the purines and pyrimidines and their analogs was determined from non-linear regression to sigmoid curves with variable slope (Prism 8), and the IC50 of the inhibitor and the Km of the labeled permeant were then used to calculate the inhibition constant (Ki) of the analogs through the Cheng–Prusoff equation: Ki = IC50/(1 + (L/Km)), where L denotes the radiolabel concentration. The calculated Ki was in turn used to determine the Gibbs free energy (ΔG^0) of the inhibitor–transporter interaction using the equation: ΔG^0 = -RTln(Ki), where R represents the gas constant and T symbolizes the absolute temperature in Kelvin [104].

TvxNT3 = TvxNT3 (Trypanosoma vivax, UniProt F9WV62); assay: cell-based; type: cell-based; conditions: for ΔG0: Gibbs free energy of interaction, from Km or Ki; for δ(ΔG0): difference in ΔG0 relative to the parent purine (adenosine or inosine); for remaining activity at 100 µM: read-out: [3H]-adenosine uptake remaining in presence of inhibitor
Chain of TvxNT3 (F9WV62 entry or part of it): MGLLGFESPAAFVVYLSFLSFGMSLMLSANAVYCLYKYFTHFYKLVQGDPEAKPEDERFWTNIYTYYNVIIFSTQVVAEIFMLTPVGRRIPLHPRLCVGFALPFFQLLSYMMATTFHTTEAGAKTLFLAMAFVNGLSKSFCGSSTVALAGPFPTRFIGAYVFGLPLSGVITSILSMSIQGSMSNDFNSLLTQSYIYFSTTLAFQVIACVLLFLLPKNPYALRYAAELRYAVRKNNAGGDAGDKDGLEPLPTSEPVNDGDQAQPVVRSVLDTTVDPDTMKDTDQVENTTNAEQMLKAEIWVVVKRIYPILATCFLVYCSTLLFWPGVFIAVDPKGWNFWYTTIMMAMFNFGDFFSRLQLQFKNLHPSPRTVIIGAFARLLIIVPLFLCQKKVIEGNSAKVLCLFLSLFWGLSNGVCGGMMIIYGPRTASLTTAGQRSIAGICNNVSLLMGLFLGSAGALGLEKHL
Description: as §1, §2, §3

L. mexicana Cas9 = assay: Resazurin drug sensitivity assay, LmexCas9; type: cell-based, Leishmania mexicana; conditions: read-out: LmexCas9 EC50
Description: (§4) EC50 values were determined by plotting to an equation for a sigmoid curve with variable slope (GraphPad Prism 8). All values were the average of at least three independent determinations on different days.

L. mexicana SUPKO = assay: microbe, parasite or virus in culture; type: cell-based, Leishmania mexicana
Description: as §4

L. mexicana SUPKO+TvxNT3 = assay: microbe, parasite or virus in culture; type: cell-based, Leishmania mexicana; conditions: for EC50: read-out: SUPKO+TvxNT3 EC50
Description: as §4

L. mexicana SUPKO+TcoAT1 = assay: microbe, parasite or virus in culture; type: cell-based, Leishmania mexicana; conditions: for EC50: read-out: SUPKO+TcoAT1 EC50
Description: as §4

[1] = target: T. b. brucei P1 (TbP1/NT2); conditions: cited from earlier work; for Ki: T. b. brucei bloodstream forms, read-out: Tbb P1 Ki
[2] = target: T. congolense adenosine transporter; assay: [3H]-adenosine uptake and its inhibition in T. congolense IL3000 bloodstream forms; type: cell-based, Trypanosoma congolense; conditions: for Ki: 0.05 µM [3H]-adenosine, 30 s, IC50 converted to Ki, read-out: Ki on the transport of [3H]-adenosine; for ΔG0, Gibbs free energy of interaction: calculated from Km or Ki; for Ki values fold higher than those for the purines: inhibition of adenosine uptake
Description: as §2, §3

[3] = resazurin, promastigotes, read-out: SUPKO EC50
[4] = Resistance Factor relative to SUPKO

Row | Compound | Ki (TcoAT1) | ΔG0 (TcoAT1) | δ(ΔG0) (TcoAT1) | ΔG0 (TvxNT3) | δ(ΔG0) (TvxNT3) | other results
1 | Nc1ccnc2c1ncn2[C@@H]1O[C@H](CO)[C@@H](O)[C@H]1O [1-deazaadenosine] | 1.03 ± 0.34 µM | -8.17 kcal/mol | 0.535 kcal/mol | – | – | –
2 | Nc1ncnc2c1ncn2[C@H]1CC[C@@H](CO)O1 [2′,3′-dideoxyadenosine] | 51.9 ± 2.6 µM | -5.83 kcal/mol | 2.856 kcal/mol | – | – | –
3 | OC[C@@H]1CC[C@H](n2cnc3c(O)ncnc32)O1 [2′,3′-dideoxyinosine] | 85.4 ± 7.1 µM | -5.54 kcal/mol | 2.99 kcal/mol | – | – | –
4 | Nc1ncnc2c1ncn2[C@H]1C[C@H](O)[C@@H](CO)O1 [2′-deoxyadenosine] | 0.5 ± 0.07 µM | -8.6 kcal/mol | 0.105 kcal/mol | -8.15 kcal/mol | 0.167 kcal/mol | –
5 | Nc1nccc2c1ncn2[C@@H]1O[C@H](CO)[C@@H](O)[C@H]1O [3-deazaadenosine] | 138 ± 37 µM | -5.26 kcal/mol | 3.44 kcal/mol and 3.435 kcal/mol | – | – | –
6 | OC[C@H]1O[C@@H](n2cnc3c(O)nccc32)[C@H](O)[C@@H]1O [3-deazainosine] | – | – | – | -6.12 kcal/mol | – | –
7 | C[C@H]1O[C@@H](n2cnc3c(N)ncnc32)[C@H](O)[C@@H]1O [5′-deoxyadenosine] | 0.45 ± 0.08 µM | -8.65 kcal/mol | 0.043 kcal/mol | -8.13 kcal/mol | 0.151 kcal/mol | –
8 | OC[C@H]1O[C@@H](n2cnc3c(S)ncnc32)[C@H](O)[C@@H]1O [6-thioinosine] | – | – | – | -7.36 kcal/mol | – | –
9 | Nc1ncnc2[nH]cnc12 [Adenine] | 761 ± 103 µM | -4.25 kcal/mol | 4.446 kcal/mol | -7.658 kcal/mol | -0.32 kcal/mol | Ki (TcoAT1; listed as ADE): 786 µM; δ(ΔG0) (TvxNT3; listed as adenine): 0.32 kcal/mol; remaining activity at 100 µM (TvxNT3): < 25%
10 | COc1ncnc2c1ccn2[C@@H]1O[C@H](CO)[C@@H](O)[C@H]1O [CL4510, 6-methoxy-7-deazapurine riboside] | 226 ± 26 µM | -4.97 kcal/mol | – | -6.55 kcal/mol | – | EC50 (L. mexicana Cas9; resazurin, promastigotes): 0.39 ± 0.05 µM; Ki (TvxNT3; 50 nM [3H]-adenosine, 90 s, IC50 converted to Ki, read-out: Ki on the transport of [3H]-adenosine): 16.1 ± 2.8 µM; SUPKO RF (Cas9) (L. mexicana SUPKO; Resistance Factor = EC50(SUPKO)/EC50(Cas9)): 5.84; EC50 (L. mexicana SUPKO; [3]): 2.3 µM and 2.28 µM; SUPKO+TvxNT3 RF (SUPKO) (L. mexicana SUPKO+TvxNT3; [4]): 1.1; EC50 (L. mexicana SUPKO+TvxNT3; resazurin, promastigotes): 2.05 ± 0.04 µM; SUPKO+TcoAT1 RF (SUPKO) (L. mexicana SUPKO+TcoAT1; [4]): 1.03; EC50 (L. mexicana SUPKO+TcoAT1; resazurin, promastigotes): 2.2 ± 0.03 µM
11 | Nc1ccn([C@@H]2O[C@H](CO)[C@@H](O)[C@H]2O)c(=O)n1 [Cytidine] | 1580 ± 69.2 µM | -3.82 kcal/mol | 4.878 kcal/mol | – | – | Ki [1]: > 250 µM; Ki [2]: 1180 ± 148 µM; ΔG0, Gibbs free energy of interaction [2]: -3.99 kcal/mol; Ki values fold higher than those for the purines [2]: > 90 fold
12 | Nc1nc2c(ncn2[C@@H]2O[C@H](CO)[C@@H](O)[C@H]2O)c(=O)[nH]1 [Guanosine] | 0.8 ± 0.09 µM | -8.32 kcal/mol | 0.387 kcal/mol | -7.995 kcal/mol | 0.017 kcal/mol | Ki [1]: 1.8 ± 0.3 µM; Tbb P1 ΔG0 [1]: -7.82 kcal/mol; remaining activity at 100 µM (TvxNT3; 100 µM inhibitor, 50 nM [3H]-adenosine): < 25%; Ki [2]: 1.06 ± 0.07 µM; ΔG0, Gibbs free energy of interaction [2]: -8.15 kcal/mol
13 | O=c1[nH]cnc2nc[nH]c12 [Hypoxanthine] | 61.2 ± 3.26 µM | -5.74 kcal/mol | 2.792 kcal/mol | -7.851 kcal/mol | -1.78 kcal/mol | δ(ΔG0) (TvxNT3; listed as hypoxanthine): 1.34 kcal/mol; remaining activity at 100 µM (TvxNT3): < 25%
14 | OC[C@H]1O[C@@H](n2cnc3cncnc32)[C@H](O)[C@@H]1O [Nebularine] | – | – | – | -7.27 kcal/mol | -0.703 kcal/mol | δ(ΔG0) (TvxNT3; listed as nebularine): 0.693 kcal/mol
15 | Nc1ncnc2c1c(-c1ccccc1)cn2C1OC(CO)C(O)C1O (centres unmarked) [TH1012, 7-phenyltubercidin] | 146 ± 58 µM | -5.23 kcal/mol | – | – | – | –
16 | Cc1cn([C@H]2C[C@H](O)[C@@H](CO)O2)c(=O)[nH]c1=O [Thymidine] | 434 ± 46.4 µM | -4.59 kcal/mol | 4.113 kcal/mol | -4.391 kcal/mol | -3.587 kcal/mol | Ki (TcoAT1; listed as TMD): 49.6 µM; Ki [1]: 44 ± 10 µM; Ki [2]: 94.6 ± 11.5 µM; ΔG0, Gibbs free energy of interaction [2]: -5.5 kcal/mol; Ki values fold higher than those for the purines [2]: > 90 fold
17 | O=c1ccn([C@@H]2O[C@H](CO)[C@@H](O)[C@H]2O)c(=O)[nH]1 [Uridine] | 1470 ± 172 µM | -3.87 kcal/mol | 4.835 kcal/mol | -4.285 kcal/mol | -3.693 kcal/mol | Ki (TcoAT1; listed as URD): 147 µM; Ki [1]: 830 ± 86 µM; Tbb P1 ΔG0 [1]: -4.47 kcal/mol; Ki [2]: 390 ± 9.1 µM; ΔG0, Gibbs free energy of interaction [2]: -4.64 kcal/mol; Ki values fold higher than those for the purines [2]: > 90 fold
18 | NCCS[As](SCCN)c1ccc(Nc2nc(N)nc(N)n2)cc1 [melarsomine, reference compound] | – | – | – | – | – | EC50 (L. mexicana Cas9; resazurin, promastigotes): > 100 µM; EC50 (L. mexicana SUPKO; [3]): > 100 µM; EC50 (L. mexicana SUPKO+TvxNT3; resazurin, promastigotes): > 100 µM; EC50 (L. mexicana SUPKO+TcoAT1; resazurin, promastigotes): > 100 µM
19 | Cc1ccc(C(=O)Nc2ccc(S(=O)(=O)O)c3cc(S(=O)(=O)O)cc(S(=O)(=O)O)c23)cc1NC(=O)c1cccc(NC(=O)Nc2cccc(C(=O)Nc3cc(C(=O)Nc4ccc(S(=O)(=O)O)c5cc(S(=O)(=O)O)cc(S(=O)(=O)O)c45)ccc3C)c2)c1 [suramin, reference compound] | – | – | – | – | – | EC50 (L. mexicana Cas9; Leishmania mexicana): > 100 µM; EC50 (L. mexicana SUPKO; Leishmania mexicana, read-out: SUPKO EC50, resazurin, promastigotes): > 100 µM; EC50 (L. mexicana SUPKO+TvxNT3; Leishmania mexicana): > 100 µM; EC50 (L. mexicana SUPKO+TcoAT1; Leishmania mexicana): > 100 µM
